Source: patent US20080201790A1, “Method and product for regulating cell responsiveness to external signals” (priority 1993, published 2008)

Key:
[1] = test system: L929 fibroblasts; test: TNF-induced apoptosis in L929 fibroblasts with Lac Switch MEKK1COOH expression; format: cell-based, murine
Source text: In L929 cells expressing the MEKK1COOH domain, exposure to TNF and IPTG increased the percentage of apoptotic cells to 40%, approximately a 2-fold increase.

[2] = test system: JNK; test: JNK solid state kinase assay (GST-Jun) in L929 cells; format: cell-based, murine
Protocol: In panel A cells were treated for 10 minutes with the indicated concentration of TNFα. JNK activation was measured using a solid phase kinase assay resulting in phosphorylation of GST-Jun. In […] the time course of MAPK activation is shown. MAPK was isolated from cell lysates on DEAE sephacel columns and MAPK activation was measured by phosphorylation of the EGFR peptide substrate. Panel C depicts the concentration curve of MAPK activation by TNFα. Cells were treated with the indicated concentration of TNFα and MAPK was assayed.
Cell lines and culture. L929 cells (ATCC CCL1 were maintained in Dulbecco's modified Eagle's medium with 5% newborn calf serum and 5% bovine calf serum (BCS) supplemented with 100 ug/ml streptomycin and 100 U/ml penicillin. The cells were grown in 10 cm dishes at 37° C. in 7.5% CO2. Cells were made quiescent where indicated by incubation in Dulbecco's modified Eagle's medium and 0.1% bovine serum albumin for 24 h. Recombinant murine TNFα and recombinant human bFGF (147aa) were from R&D Systems, Minneapolis, Minn. Cells were pretreated where indicated with the MEK-1 inhibitor PD#098059 (Parke-Davis Pharmaceutical Corp. Ann Arbor, Mich.) for 1 h at 37° C. Cells were stimulated by incubation with the indicated cytokine or growth factor for various times at 37° C. Stimulation was stopped by rinsing the plates twice with ice cold phosphate buffered saline (PBS) and lysing the cells in the appropriate lysis buffer. Cells were scraped from the plates and nuclei were pelleted for 10 min at 14,000 RPM in a microcentrifuge. JNK assay. JNK activity was measured using a solid state kinase assay in which glutathione S-transferase-c-Jun (1-79) (GST-JUN) cound to glutathione-Sepharose 4B beads was used to affinity purify JNK and then JNK activity was measured in an in vitro kinase assay using the sepharose bound GST-Jun as a substrate (Hibi, M., et al. (1993) Genes & Development 7:2135-2148). Stimulated or unstimulated cells were lysed in 0.5% Nonidet P-40, 20 mM HEPES pH 7.2, 100 mM NaCl, 2 mM dithiothreitol, 1 mM EDTA, 1.0 mM phenylmethylsulfonylfluoride, 1 μg/ml aprotinin and the nuclei pelleted. Lysates were normalized for protein content. JNK was affinity purified from 50-100 μg of cell lysate by the addition of 10 ul of GST-Jun sepharose slurry (2 μg GST-Jun). Binding to GST-Jun efficiently isolates the two major forms of JNK (p45 and p55) and under the conditions used JNK isolation was linear for 10-250 μg of cell lysate. The lysates were rotated at 4° C. for 1-3 h. Beads were washed twice in lysis buffer and then twice in PAN (10 mM PIPES, pH 7.0, 100 mM NaCl, 21 μg/ml aprotinin). Kinase reactions were carried out at 30° C. for 15 min in 20 mM Hepes pH 7.2, 20 mM β-glycerophosphate, 10 mM p-nitrophenyl phosphate, 10 mM MgCl2, 1 mM dithiothreitol, 50 μm sodium vanadate, 10 μCi γ^32P-ATP 4300 Ci/mmole. The kinase reaction was linear from 0-30 min. MAPK Assay MAPK activity was measured exactly as described previously (Gardner, A. M., et al. (1994) Meth. Enzymol. 238:258-270) with the exception that MonoQ FPLC fractionation was replaced by step elution from a DEAE-Sephacel column using 0.5 M NaCl in loading buffer. The eluate was assayed in triplicate using the epidermal growth factor receptor 662-681 peptide (EGFR662-681) as a selective substrate for MAPK activity (Heasley, L. E., et al. (1994) American Journal of Physiology (Renal Fluid Electrolyte Physiol. 36) 267:F366-F373). […] Cells were lysed by scraping in ice cold RIPA buffer (50 mM Tris-HCl, pH 7.2, 150 mM NaCl, 0.1% SDS, 0.5% sodium deoxycholate, 1.0% Triton X-100, 10 mM sodium pyrophosphate, 25 mM β-glycerophosphate, 2 mM sodium vanadate, 2.1 μg/ml aprotinin) and the nuclei were pelletted. […]

[3] = test system: MEKK1; test: Cellular localization of MEKK1 in Swiss 3T3 cells, antibody staining; format: cell-based; conditions: serum starved Swiss 3T3 cells, 10 minutes
Source text: (§1) Cells were fixed and stained with an antibody specifically recognizing either MEKK1 or MEKK2. Secondary FITC-conjugated anti-rabbit IgG antibody was used for staining.

[4] = test system: MEKK2; test: Cellular localization of MEKK2 in Swiss 3T3 cells, antibody staining; format: cell-based; conditions: serum starved Swiss 3T3 cells, 10 minutes
Source text: as §1

| Substance | percentage of apoptotic cells, control L929 cells ([1]; TNF exposure, presence or absence of IPTG) | level of apoptotic cells, L929 cells expressing the kinase inactive mutant ([1]; exposure to TNF) | increase of percentage of apoptotic cells, MEKK1COOH cells versus control ([1]; exposure to TNF and IPTG) | percentage of apoptotic cells, L929 cells expressing the MEKK1COOH domain ([1]; exposure to TNF and IPTG) | JNK activation ([2]; 0.1 ng/ml TNFα) | JNK activity relative to basal ([2]; 1-2 hr post-stimulation) | concentration giving maximal JNK activation ([2]; L929 cells) | time of peak JNK activity ([2]; L929 cells) | cellular localization of MEKK1 [3] | cellular localization of MEKK2 [4] | effect on JNK activity ([2]; 2.5 ng/ml bFGF) | effect on TNFα stimulation of JNK ([2]; L929 cells) |
| --- | --- | --- | --- | --- | --- | --- | --- | --- | --- | --- | --- | --- |
| TNFα | approximately 20% | did not increase the level of apoptotic cells above levels seen in controls | ~2 fold | 40% | greater than four-fold | two-fold above basal | 1 ng/mL | 10 to 15 min | had no effect on the cellular localization of MEKK1 | induced a translocation of MEKK2 to the plasma membrane |  |  |
| bFGF: recombinant human bFGF (147aa), basic fibroblast growth factor |  |  |  |  |  |  |  |  |  |  | little or no effect on JNK activity | did not alter the magnitude of JNK activation in response to TNFα |
